Experimental data as given in paper PMC9405596, “Evaluation of the Anti-Leishmania mexicana and -Trypanosoma brucei Activity and Mode of Action of 4,4′-(Arylmethylene)bis(3-methyl-1-phenyl-1H-pyrazol-5-ol)” (Biomedicines, 2022).
Like-named read-outs stand apart in the source and are kept apart here.

How the values were obtained:
[1] = test system: L. mexicana promastigotes; test: MTT viability assay against L. mexicana promastigotes; assay type: cell-based, Leishmania mexicana; conditions: for IC50: 48 h; for L. mexicana Promastigote SI vs. Macrophage: CC50 RAW macrophages/IC50 L. mexicana; for L. mexicana Promastigote SI vs. Hepatocytes: CC50 HepG2 hepatocytes/IC50 L. mexicana
Experimental: The leishmanicidal activity against promastigotes from L. mexicana was evaluated by measuring parasites’ mitochondrial activity using the MTT (Thiazolyl Blue Tetrazolium Bromide) colorimetric assay as described previously. […] The medium was renewed every third day and subcultures were prepared when parasite density reached 1 × 10^7 parasites/mL. A Neubauer chamber was used to determine parasite density.

[2] = MTT cytotoxicity assay, murine macrophages; assay type: cell-based; conditions: mouse, RAW 264.7 macrophage cells, RAW 264.7, 48 h
Experimental: (§1) Murine macrophages (cell line RAW 264.7, ATCC® TIB-71™) were grown in Dulbecco’s Modified Eagle Medium (DMEM) (Gibco, Invitrogen, Waltham, MA, USA) supplemented with 10% fetal bovine serum (FBS) (Eurobio) and 100 IU/mL penicillin + 100 µg/mL streptomycin (Gibco), at 37 °C, in an atmosphere containing 5% CO2. Human hepatocyte cell line HepG2 (ATCC® HB-8065™) was grown in MEM (Gibco, Invitrogen) supplemented with 10% FBS (Gibco, Invitrogen), 1% NEAA (Gibco, Invitrogen), and 1% L-glutamine (Gibco, Invitrogen). The medium was renewed twice a week. For both cell lines, the viability was determined using the MTT assay as described before for leishmanicidal activity assessment, with some variations. Here, 5 × 10^4 cells/well in a final volume of 100 µL were seeded into a 96-well plate, in triplicate for RAW macrophages and in duplicate for HepG2. Saponin (2.4 mg/mL) and untreated cells were used as positive control and negative control, respectively. Compounds were dissolved in DMSO to obtain different serial concentrations (1.56 to 800 µM) for RAW macrophages and 100–0.001 µM for HepG2. The final concentration of DMSO in each well was 0.5%. After exposure to compounds for 48 h and 72 h for RAW and HepG2 cells, respectively, 10 µL/well of MTT (5 mg/mL in PBS) was added, incubated at 37 °C for 2 h in darkness, and cells were pelleted via centrifugation at 4400 rpm for 10 min. The medium was removed, and 100 µL/well of DMSO was added to dissolve formazan. The absorbance at 570 and 630 nm was recorded following the same procedure as with parasites.

[3] = MTT cytotoxicity assay, HepG2; assay type: cell-based; conditions: human, HepG2 cells, HepG2, 72 h, read-out: CC50 HepG2 Hepatocytes
Experimental: as §1

[4] = test system: bloodstream form of T. b. brucei (strain 427); test: Bioluminescence viability assay against bloodstream T. b. brucei expressing luciferase; conditions: for activity at 10 µM / inhibition at 10 µM / IC50: 24 h; for activity at 10 µM: read-out: T. brucei bloodstream % Growth (10 µM), 10 µM, 24 h; for inhibition at 10 µM: read-out: T. brucei growth inhibition at 10 µM; for anti-T. brucei activity in preliminary screening, in words: 10 µM; for T. brucei SI vs. Hepatocytes: CC50 HepG2 hepatocytes/IC50 T. brucei; for T. brucei bloodstream SI vs. Macrophages: CC50 RAW macrophages/IC50 T. brucei
[5] = Leishmania mexicana, read-out: L. mexicana Promastigote IC50, promastigotes, 48 h, MTT
[6] = read-out: L. mexicana Promastigote IC50, promastigotes, MTT
[7] = Trypanosoma brucei, read-out: T. brucei bloodstream IC50, 24 h, bioluminescence

Structure (SMILES): C[C@@H]1[C@H](O)[C@@H](C)/C=C/C=C/C=C/C=C/C=C/C=C/C=C/[C@H](O[C@@H]2O[C@H](C)[C@@H](O)[C@H](N)[C@@H]2O)C[C@@H]2O[C@](O)(C[C@@H](O)C[C@@H](O)[C@H](O)CC[C@@H](O)C[C@@H](O)CC(=O)O[C@H]1C)C[C@H](O)[C@H]2C(=O)O [Amphotericin B, reference compound]
- IC50 [1, 5]: 0.17 ± 0.05 µM
- CC50 at 48 h [2]: > 5 µM

Structure (SMILES): Cc1nn(-c2ccccc2)c(O)c1C(c1ccccc1O)c1c(C)nn(-c2ccccc2)c1O [Compound 2a]
- CC50 at 72 h [3]: > 100 µM
- L. mexicana Promastigote SI vs. Macrophage [1]: 4.3
- IC50 [1, 5]: 12 ± 3 µM
- melting point: 219.5 to 220.6 °C
- activity at 10 µM ([4]; Trypanosoma brucei): 77 ± 5%
- inhibition at 10 µM ([4]; Trypanosoma brucei): 23%
- CC50 at 48 h [2]: 51 ± 6 µM

Structure (SMILES): Cc1nn(-c2ccccc2)c(O)c1C(c1ccccc1)c1c(C)nn(-c2ccccc2)c1O [Compound 2b]
- CC50 at 72 h [3]: > 100 µM
- L. mexicana Promastigote SI vs. Hepatocytes [1]: >3.1
- L. mexicana Promastigote SI vs. Macrophage [1]: 6.4
- IC50 [1, 5]: 32 ± 7 µM
- melting point: 159.5 to 161.1 °C
- activity at 10 µM ([4]; Trypanosoma brucei): 74 ± 7%
- CC50 at 48 h [2]: 206 ± 28 µM

Structure (SMILES): Cc1nn(-c2ccccc2)c(O)c1C(c1ccccc1[N+](=O)[O-])c1c(C)nn(-c2ccccc2)c1O [Compound 2c]
- CC50 at 72 h [3]: 26 ± 16 µM
- L. mexicana Promastigote SI vs. Hepatocytes [1]: 1.5
- L. mexicana Promastigote SI vs. Macrophage [1]: 3.1
- IC50 [1, 5]: 17 ± 8 µM
- melting point: 210 to 211 °C
- activity at 10 µM ([4]; Trypanosoma brucei): 68 ± 5%
- CC50 at 48 h [2]: 53 ± 6 µM

Structure (SMILES): Cc1nn(-c2ccccc2)c(O)c1C(c1cccc([N+](=O)[O-])c1)c1c(C)nn(-c2ccccc2)c1O [Compound 2d]
- CC50 at 72 h [3]: > 100 µM
- L. mexicana Promastigote SI vs. Hepatocytes [1]: >10
- L. mexicana Promastigote SI vs. Macrophage [1]: 7.5
- IC50 [1, 5]: ≤ 10 µM
- IC50 [1, 6]: 10 ± 3 µM
- activity at 10 µM ([4]; Trypanosoma brucei): 73 ± 4%
- CC50 at 48 h [2]: 75 ± 15 µM

Structure (SMILES): COc1ccc(C(c2c(C)nn(-c3ccccc3)c2O)c2c(C)nn(-c3ccccc3)c2O)cc1 [Compound 2e]
- IC50 [1, 5]: > 50 µM
- melting point: 176 to 177 °C
- anti-T. brucei activity in preliminary screening, in words [4]: inactive
- activity at 10 µM ([4]; Trypanosoma brucei): > 100%

Structure (SMILES): COc1ccccc1C(c1c(C)nn(-c2ccccc2)c1O)c1c(C)nn(-c2ccccc2)c1O [Compound 2f]
- CC50 at 72 h [3]: > 100 µM
- L. mexicana Promastigote SI vs. Hepatocytes [1]: >4.5
- L. mexicana Promastigote SI vs. Macrophage [1]: 4.2
- IC50 [1, 5]: 22 ± 9 µM
- T. brucei SI vs. Hepatocytes [4]: >12.5
- T. brucei bloodstream SI vs. Macrophages [4]: 11.6
- activity at 10 µM ([4]; Trypanosoma brucei): ≤ 50%
- IC50 [4, 7]: 8 ± 0.27 µM
- SI against T. brucei, range over both mammalian cell lines ([4]; murine macrophages and HepG2 hepatocytes): 11.6–18
- CC50 at 48 h [2]: 93 ± 7 µM

Structure (SMILES): Cc1nn(-c2ccccc2)c(O)c1C(c1ccc(N(C)C)cc1)c1c(C)nn(-c2ccccc2)c1O [Compound 2g]
- IC50 [1, 5]: > 50 µM
- melting point: 188.8 to 189.6 °C
- anti-T. brucei activity in preliminary screening, in words [4]: inactive
- activity at 10 µM ([4]; Trypanosoma brucei): > 100%

Structure (SMILES): Cc1nn(-c2ccccc2)c(O)c1C(c1cc(O)ccc1[N+](=O)[O-])c1c(C)nn(-c2ccccc2)c1O [Compound 2h]
- CC50 at 72 h [3]: > 100 µM
- L. mexicana Promastigote SI vs. Hepatocytes [1]: >4.8
- L. mexicana Promastigote SI vs. Macrophage [1]: 5.1
- IC50 [1, 5]: 21 ± 4 µM
- melting point: 205 to 207 °C (dec.)
- activity at 10 µM ([4]; Trypanosoma brucei): 89 ± 3%
- CC50 at 48 h [2]: 108 ± 22 µM

Structure (SMILES): COc1cccc(C(c2c(C)nn(-c3ccccc3)c2O)c2c(C)nn(-c3ccccc3)c2O)c1 [Compound 2i]
- CC50 at 72 h [3]: > 100 µM
- L. mexicana Promastigote SI vs. Hepatocytes [1]: >10
- L. mexicana Promastigote SI vs. Macrophage [1]: 23.2
- IC50 [1, 5]: 10 ± 3 µM
- melting point: 205.7 to 207.1 °C
- anti-T. brucei activity in preliminary screening, in words [4]: inactive
- activity at 10 µM ([4]; Trypanosoma brucei): > 100%
- CC50 at 48 h [2]: 232 ± 25 µM

Structure (SMILES): COc1ccc(C(c2c(C)nn(-c3ccccc3)c2O)c2c(C)nn(-c3ccccc3)c2O)cc1O [Compound 2j]
- CC50 at 72 h [3]: > 100 µM
- L. mexicana Promastigote SI vs. Hepatocytes [1]: >10
- L. mexicana Promastigote SI vs. Macrophage [1]: 11.3
- IC50 [1, 5]: 10 ± 4 µM
- melting point: 200 to 202 °C
- anti-T. brucei activity in preliminary screening, in words [4]: inactive
- activity at 10 µM ([4]; Trypanosoma brucei): > 100%
- CC50 at 48 h [2]: 113 ± 15 µM

Structure (SMILES): Cc1nn(-c2ccccc2)c(O)c1C(c1ccc([N+](=O)[O-])cc1)c1c(C)nn(-c2ccccc2)c1O [Compound 2k]
- CC50 at 72 h [3]: 15 ± 6 µM
- L. mexicana Promastigote SI vs. Hepatocytes [1]: 1.7
- L. mexicana Promastigote SI vs. Macrophage [1]: 13
- IC50 [1, 5]: ≤ 10 µM
- IC50 [1, 6]: 9 ± 1 µM
- activity at 10 µM ([4]; Trypanosoma brucei): 88 ± 4%
- CC50 at 48 h [2]: 117 ± 15 µM

Structure (SMILES): Cc1nn(-c2ccccc2)c(O)c1C(c1cccc(O)c1)c1c(C)nn(-c2ccccc2)c1O [Compound 2l]
- CC50 at 72 h [3]: > 100 µM
- L. mexicana Promastigote SI vs. Hepatocytes [1]: >5.6
- L. mexicana Promastigote SI vs. Macrophage [1]: 6
- IC50 [1, 5]: 18 ± 5 µM
- melting point: 165 to 167 °C
- anti-T. brucei activity in preliminary screening, in words [4]: inactive
- activity at 10 µM ([4]; Trypanosoma brucei): > 100%
- inhibition at 10 µM ([4]; Trypanosoma brucei): 0%
- CC50 at 48 h [2]: 108 ± 33 µM

Structure (SMILES): COc1cc(C(c2c(C)nn(-c3ccccc3)c2O)c2c(C)nn(-c3ccccc3)c2O)cc(OC)c1O [Compound 2m]
- CC50 at 72 h [3]: > 100 µM
- L. mexicana Promastigote SI vs. Hepatocytes [1]: >4.3
- L. mexicana Promastigote SI vs. Macrophage [1]: 12.4
- IC50 [1, 5]: 23 ± 5 µM
- melting point: 208 to 209.5 °C
- anti-T. brucei activity in preliminary screening, in words [4]: inactive
- activity at 10 µM ([4]; Trypanosoma brucei): > 100%
- CC50 at 48 h [2]: 286 ± 51 µM

Structure (SMILES): Cc1nn(-c2ccccc2)c(O)c1C(c1ccc(O)cc1)c1c(C)nn(-c2ccccc2)c1O [Compound 2o]
- IC50 [1, 5]: > 50 µM
- melting point: 217.2 to 218.9 °C
- anti-T. brucei activity in preliminary screening, in words [4]: inactive
- activity at 10 µM ([4]; Trypanosoma brucei): > 100%
- inhibition at 10 µM ([4]; Trypanosoma brucei): 0%

Structure (SMILES): Cc1nn(-c2ccccc2)c(O)c1C(c1ccc(F)cc1)c1c(C)nn(-c2ccccc2)c1O [Compound 2p]
- CC50 at 72 h [3]: 13 ± 2 µM
- L. mexicana Promastigote SI vs. Hepatocytes [1]: 0.8
- L. mexicana Promastigote SI vs. Macrophage [1]: 2.5
- IC50 [1, 5]: 17 ± 1 µM
- melting point: 183.8 to 185.8 °C
- activity at 10 µM ([4]; Trypanosoma brucei): 79 ± 8%
- CC50 at 48 h [2]: 43 ± 6 µM

Structure (SMILES): COC(=O)c1ccc(C(c2c(C)nn(-c3ccccc3)c2O)c2c(C)nn(-c3ccccc3)c2O)cc1 [Compound 2q]
- CC50 at 72 h [3]: 29 ± 4 µM
- L. mexicana Promastigote SI vs. Hepatocytes [1]: 2.2
- L. mexicana Promastigote SI vs. Macrophage [1]: 8.5
- IC50 [1, 5]: 13 ± 3 µM
- T. brucei SI vs. Hepatocytes [4]: 4.9
- T. brucei bloodstream SI vs. Macrophages [4]: 19
- activity at 10 µM ([4]; Trypanosoma brucei): ≤ 50%
- IC50 [4, 7]: 6 µM
- IC50 ([4]; read-out: T. brucei bloodstream IC50, bioluminescence): 5.9 ± 0.6 µM
- CC50 at 48 h [2]: 111 ± 2 µM

Structure (SMILES): Cc1nn(-c2ccccc2)c(O)c1C(c1ccc(OC(F)(F)F)cc1)c1c(C)nn(-c2ccccc2)c1O [Compound 2s]
- CC50 at 72 h [3]: 26 ± 15 µM
- L. mexicana Promastigote SI vs. Hepatocytes [1]: 8.7
- L. mexicana Promastigote SI vs. Macrophage [1]: 14.3
- melting point: 174.5 to 176 °C
- anti-T. brucei activity in preliminary screening, in words [4]: inactive
- activity at 10 µM ([4]; Trypanosoma brucei): > 100%
- CC50 at 48 h [2]: 49 ± 15 µM

Structure (SMILES): CC1(C)[C@@H](O[C@@H]2OC[C@H](O[C@@H]3OC[C@@H](O)[C@H](O)[C@H]3O)[C@H](O[C@H]3O[C@H](CO)[C@@H](O)[C@H](O)[C@H]3O)[C@H]2O[C@@H]2O[C@H](CO)[C@@H](O)[C@H](O)[C@H]2O[C@H]2O[C@H](CO)[C@@H](O)[C@H](O)[C@H]2O)CC[C@]2(C)[C@H]3CCC45OCC6(CC[C@@](C)(C=O)C[C@@H]64)[C@H](O)C[C@@]5(C)[C@]3(C)CC[C@@H]12 (some centres unmarked) [Saponin, reference compound]
- CC50 at 48 h ([2]; positive control): 160 ± 30 µg/mL
